Laboratory results published in ChEMBL document CHEMBL3585267, “Bioactivity of surface tethered Osteogenic Growth Peptide motifs” (2014).
The source made the active and inactive calls. The calls are words filed in the database; no cut-off is given here. Peptide text beside a SMILES is read from it.

Key:
Mesenchymal stem cell [1] = experiment: Effect on cell proliferation of rabbit mesenchymal stem cells incubated for 7 days by MTT assay; format: functional; conditions: Oryctolagus cuniculus
Mesenchymal stem cell [2] = experiment: Induction of osteogenesis of rabbit mesenchymal stem cells by alkaline phosphatase assay; format: functional; conditions: Oryctolagus cuniculus
[3] = Reduction in cell proliferation of rabbit mesenchymal stem cells incubated for 14 days by MTT assay; format: functional; conditions: Oryctolagus cuniculus
[4] = Reduction in cell proliferation of rabbit mesenchymal stem cells incubated for 5 days by MTT assay; format: functional; conditions: Oryctolagus cuniculus
[5] = (§1) Increase in BMP2 mRNA expression in rabbit mesenchymal stem cells incubated for 14 days by qRT-PCR method relative to untreated control; format: functional, Oryctolagus cuniculus, Mesenchymal stem cell
[6] = (§2) Increase in RUNX2 mRNA expression in rabbit mesenchymal stem cells incubated for 7 days by qRT-PCR method relative to untreated control; format: functional, Oryctolagus cuniculus, Mesenchymal stem cell
Mesenchymal stem cell [7] = experiment: Effect on cell morphology of rabbit mesenchymal stem cells incubated for 7 days by H and E staining method; format: functional; conditions: Oryctolagus cuniculus
[8] = (§3) Increase in BMP2 mRNA expression in rabbit mesenchymal stem cells incubated for 7 days by qRT-PCR method relative to untreated control; format: functional, Oryctolagus cuniculus, Mesenchymal stem cell
[9] = Reduction in cell proliferation of rabbit mesenchymal stem cells incubated for 7 days by MTT assay; format: functional; conditions: Oryctolagus cuniculus
Mesenchymal stem cell [10] = experiment: Increase in SPARC mRNA expression in rabbit mesenchymal stem cells incubated for 7 days by qRT-PCR method relative to untreated control; format: functional; conditions: Oryctolagus cuniculus
[11] = Increase in SPARC mRNA expression in rabbit mesenchymal stem cells incubated for 14 days by qRT-PCR method relative to untreated control; format: functional, Oryctolagus cuniculus, Mesenchymal stem cell
Mesenchymal stem cell [12] = experiment: Effect on cell morphology of rabbit mesenchymal stem cells incubated for 3 days by phalloidin immunofluorescence staining method; format: functional; conditions: Oryctolagus cuniculus
[13] = (§4) Increase in RUNX2 mRNA expression in rabbit mesenchymal stem cells incubated for 14 days by qRT-PCR method relative to untreated control; format: functional, Oryctolagus cuniculus, Mesenchymal stem cell
Mesenchymal stem cell [14] = experiment: Effect on cell proliferation of rabbit mesenchymal stem cells incubated for 3 days by MTT assay; format: functional; conditions: Oryctolagus cuniculus
Mesenchymal stem cell [15] = experiment: as §1; format: functional; conditions: Oryctolagus cuniculus
Mesenchymal stem cell [16] = experiment: as §2; format: functional; conditions: Oryctolagus cuniculus
Mesenchymal stem cell [17] = experiment: Increase in cell proliferation of rabbit mesenchymal stem cells incubated for 14 days by MTT assay; format: functional; conditions: Oryctolagus cuniculus
Mesenchymal stem cell [18] = experiment: as §3; format: functional; conditions: Oryctolagus cuniculus
Mesenchymal stem cell [19] = experiment: as §4; format: functional; conditions: Oryctolagus cuniculus

| SMILES | Activity (Mesenchymal stem cell [1]) | Activity (Mesenchymal stem cell [2]) | Activity (Mesenchymal stem cell [7]) | Activity (Mesenchymal stem cell [10]) | Activity (Mesenchymal stem cell [12]) | Activity (Mesenchymal stem cell [14]) | other results |
| --- | --- | --- | --- | --- | --- | --- | --- |
| CC(C)C[C@H](NC(=O)[C@H](C)N)C(=O)N[C@@H](CCCCN)C(=O)N[C@@H](CCCNC(=N)N)C(=O)N[C@@H](CCC(N)=O)C(=O)NCC(=O)N[C@@H](CCCNC(=N)N)C(=O)N[C@H](C(=O)N[C@@H](CC(C)C)C(=O)N[C@@H](CS)C(=O)O)[C@@H](C)O (H-ALKRQGRTLC-OH) | inactive | inactive | – | – | – | – | – |
| N[C@@H](CS)C(=O)N[C@@H](Cc1ccc(O)cc1)C(=O)NCC(=O)N[C@@H](Cc1ccccc1)C(=O)NCC(=O)NCC(=O)O (H-CYGFGG-OH) | – | Active | inactive | inactive | inactive | inactive | Activity [3]: Active; Activity [4]: Active; fold change (FC) [5]: 60; fold change (FC) [6]: 2.6; fold change (FC) [8]: 49; Activity [9]: Active; fold change (FC) [11]: 1.6; fold change (FC) [13]: 1.7 |
| N[C@@H](Cc1ccc(O)cc1)C(=O)NCC(=O)N[C@@H](Cc1ccccc1)C(=O)NCC(=O)NCC(=O)N[C@@H](CS)C(=O)O (H-YGFGGC-OH) | inactive | inactive | – | – | – | – | – |
| N[C@@H](Cc1ccc(O)cc1)C(=O)NCC(=O)N[C@@H](Cc1ccccc1)C(=O)NCC(=O)NCC(=O)O (H-YGFGG-OH) | inactive | inactive | inactive | inactive | inactive | inactive | Activity (Mesenchymal stem cell [15]): inactive; Activity (Mesenchymal stem cell [16]): inactive; Activity (Mesenchymal stem cell [17]): Active; Activity (Mesenchymal stem cell [18]): inactive; Activity (Mesenchymal stem cell [19]): inactive |
| CC(C)C[C@H](NC(=O)[C@@H](NC(=O)[C@H](CCCNC(=N)N)NC(=O)CNC(=O)[C@H](CCC(N)=O)NC(=O)[C@H](CCCNC(=N)N)NC(=O)[C@H](CCCCN)NC(=O)[C@H](CC(C)C)NC(=O)[C@H](C)NC(=O)[C@@H](N)CS)[C@@H](C)O)C(=O)O (H-CALKRQGRTL-OH) | inactive | inactive | – | – | – | – | – |
| CC(C)C[C@H](NC(=O)[C@@H](NC(=O)[C@H](CCCNC(=N)N)NC(=O)CNC(=O)[C@H](CCC(N)=O)NC(=O)[C@H](CCCNC(=N)N)NC(=O)[C@H](CCCCN)NC(=O)[C@H](CC(C)C)NC(=O)[C@H](C)N)[C@@H](C)O)C(=O)O (H-ALKRQGRTL-OH) | inactive | inactive | – | – | – | – | – |
